Experimental data published in US11642344B2, “Cholesteryl ester transfer protein (CETP) inhibitor and pharmaceutical compositions comprising said inhibitor for use in the treatment or prevention of cardiovascular diseases” (NewAmsterdam Pharma B.V., priority 2014, dated 2023).
Read-outs that look alike come from different tables or passages of the source.

How the values were obtained:
CETP [1] = molecular target: T1, CETP (Homo sapiens, UniProt P11597); assay: In vitro CETP assay: 3H-labeled CE transfer from HDL to VLDL/LDL in human plasma; assay type: biochemical; settings: 24 h pre-incubation at 37° C.
T1 construct: from tissue; host or cells: plasma of Caucasian male subjects dosed with Compound A or placebo
T1 sequence (P11597 18-493): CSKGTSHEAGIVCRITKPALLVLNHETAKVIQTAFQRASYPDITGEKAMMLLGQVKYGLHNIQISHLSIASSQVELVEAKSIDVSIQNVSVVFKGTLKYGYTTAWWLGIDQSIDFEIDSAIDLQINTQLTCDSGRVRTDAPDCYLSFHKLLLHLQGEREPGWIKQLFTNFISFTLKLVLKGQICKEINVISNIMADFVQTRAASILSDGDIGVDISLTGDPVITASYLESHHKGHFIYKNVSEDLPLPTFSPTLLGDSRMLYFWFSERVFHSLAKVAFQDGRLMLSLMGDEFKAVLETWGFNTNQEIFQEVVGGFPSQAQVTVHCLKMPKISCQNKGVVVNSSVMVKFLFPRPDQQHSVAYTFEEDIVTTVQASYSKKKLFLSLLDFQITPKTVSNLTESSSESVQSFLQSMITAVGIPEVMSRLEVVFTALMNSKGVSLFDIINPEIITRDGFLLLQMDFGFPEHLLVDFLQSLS
Description: Human blood was obtained from healthy male volunteers using 0.1% EDTA as an anticoagulant, and centrifuged at 3,000 rpm for 15 minutes at 4° C. Human plasma was pooled, and then used for the preparation of ^3H-labeled HDL or stored at −80° C. for CETP assay until use. The ^3H-labeled HDL was prepared with human plasma as described by Glenn and Melton (Methods in enzymology. 263; 339-351, 1996). The specific gravity of plasma was measured by a hydrometer, and the density was adjusted to 1.125 g/mL by adding solid KBr. After centrifugation at 100,000 rpm for 4 hours at 12° C. (rotor: 100.4, Optima TLX, Beckman), d>1.125 g/mL fraction was dialyzed against 4 L of Tris-saline-EDTA buffer (TSE; 50 mmol/L Tris, 150 mmol/L NaCl, 2 mmol/L EDTA, pH7.4) for 18 hours at 4° C. [1,2-^3H(N)]-Cholesterol (37 MBq/mL) was added to the dialyzed plasma fraction at the amount of 2 μCi/mL. The tube was tightly sealed under N2 gas stream and incubated at 37° C. for 18 hours with gently stirring to allow esterification of radio-labeled cholesterol by endogenous LCAT. The incubated plasma fraction was adjusted to d=1.21 g/mL with solid KBr, and centrifuged at 100,000 rpm, 12° C. for 5 hours. ^3H-labeled HDL fraction was dialyzed against 2 L of TSE at 4° C. for 18 hours. The radioactivity of ^3H-labeled HDL was counted in a liquid scintillation counter. ^3H-labeled HDL was stored at 4° C. until use.
CETP activity was determined as the rate of ^3H-labeled CE transfer from donor HDL to acceptor VLDL/LDL. Human plasma (94 μL) was pre-incubated with compounds dissolved in DMSO (1 μL) 24 hours at 37° C., and then incubated for 4 hours at 4° C. or 37° C. with 5 μL of ^3H-labeled HDL. One hundred μL of phosphotungstate/MgCl2 reagent (Wako pure chemical) were added to precipitate apoB-containing lipoproteins. After centrifugation at 3,000 rpm for 10 minutes at room temperature, the radioactivity of the supernatant was counted in a liquid scintillation counter. […] The concentration achieving 50% inhibition of CETP activity (IC50) was estimated.

CETP [2] = assay: Ex vivo serum CETP activity after oral administration to hamsters; parameters: species or system Syrian Golden hamsters; settings: 3 mg/kg oral, suspension in 0.5% CMC, serum 3 hours after administration
Description: Syrian Golden hamsters were used for the experiment after 1-week acclimatization. After an overnight fast, animals were orally given the compound suspension in 0.5% sodium carboxymethylcellulose in a volume of 10 mL/kg. Under deep anesthesia with ether, blood was collected from the abdominal aorta 3 hours after the administration. For preparation of serum, the collected blood was transferred to a plastic tube containing a clot activator, left still for 15 minutes at room temperature and centrifuged. Serum CETP activities were determined immediately.
Ninety-five μL serum were added to 5 μL of […] sodium phosphate buffered saline (pH 7.0) containing 1.5 mM 5,5′-dithio-bis(2-nitrobenzoic acid) in two 96-well V-bottom plates. One plate was incubated at 4° C. and the other was incubated at 37° C. After 18 hours of incubation, each sample was mixed with 100 μL of reagent for precipitation of apolipoprotein B-containing lipoproteins (phosphotungstate/MgCl2 reagent, Wako pure chemical), left still for 10 minutes at room temperature and centrifuged. Total cholesterol (TC) and free cholesterol (FC) in supernatant were measured using commercial kits (Cholesterol E-test wako, and Free Cholesterol E-test wako; Wako pure chemical). Cholesteryl ester (CE) was calculated by subtracting FC from TC. CETP activity was determined by the following formula: CETP activity=[CETP transfer]*/[CE value in 4° C. incubation sample] *CETP transfer=[CE value in 4° C. incubation sample]−[CE value in 37° C. incubation sample] (c) Results

HDL-C, LDL-C = settings: cited from earlier work
[3] = cited from earlier work; for mineralocorticoid activity: data from phase 2 studies; for off-target effects (in words): clinical trials
[4] = 500 mg once daily monotherapy in patients
[5] = 200 mg once daily, fasted healthy subjects

CCOC(=O)N1c2ccc(C(F)(F)F)cc2[C@@H](N(Cc2cc(C(F)(F)F)cc(C(F)(F)F)c2)c2ncc(OCc3cccc(C(=O)O)c3)cn2)C[C@H]1CC [compound 2]
IC50 (CETP [1]): 0.23 µM
ex vivo (% inhibition) 3 mg/kg (CMC) (CETP [2]): 38.4%

Cc1cc(C)c2c(c1)[C@@H](N(Cc1cc(C(F)(F)F)cc(C(F)(F)F)c1)c1nnn(C)n1)CCCN2C[C@H]1CC[C@H](C(=O)O)CC1 [Evacetrapib, evacetrapib]
decrease LDL-C (HDL-C, LDL-C; [4]): 36%
increase HDL-C (HDL-C, LDL-C; [4]): 129%
mineralocorticoid activity [3]: without mineralocorticoid activity

CCOC(=O)N1c2ccc(C(F)(F)F)cc2[C@@H](N(Cc2cc(C(F)(F)F)cc(C(F)(F)F)c2)C(=O)OC)C[C@H]1CC [Torcetrapib, torcetrapib]
decrease LDL-C (HDL-C, LDL-C; dosed at 60 mg, phase 3): 25%
increase HDL-C (HDL-C, LDL-C; dosed at 60 mg, phase 3): 72%
off-target effects (in words) [3]: increased blood pressure, changes in electrolytes
cardiovascular events and death ([3]; in combination with atorvastatin, compared with atorvastatin alone): unexpected increase in cardiovascular events and death

CCOC(=O)N1c2ccc(C(F)(F)F)cc2C(N(Cc2cc(C(F)(F)F)cc(C(F)(F)F)c2)c2ncc(S(=O)(=O)CCCC(=O)O)cn2)CC1CC (stereo not drawn) [compound 6]
IC50 (CETP [1]): 0.22 µM
ex vivo (% inhibition) 3 mg/kg (CMC) (CETP [2]): 13.9%

CCOC(=O)N1c2ccc(C(F)(F)F)cc2C(N(Cc2cc(C(F)(F)F)cc(C(F)(F)F)c2)c2ncc(OCC(=O)N3CCCC3C(=O)O)cn2)CC1CC (stereo not drawn) [compound 5]
IC50 (CETP [1]): 1.7 µM
ex vivo (% inhibition) 3 mg/kg (CMC) (CETP [2]): 6.2%

CCOC(=O)N1c2ccc(C(F)(F)F)cc2C(N(Cc2cc(C(F)(F)F)cc(C(F)(F)F)c2)c2ncc(OCc3ccc(C(=O)O)cc3)cn2)CC1CC (stereo not drawn) [compound 1]
IC50 (CETP [1]): 0.21 µM
ex vivo (% inhibition) 3 mg/kg (CMC) (CETP [2]): 57.5%

COc1cc(F)c(C(C)C)cc1-c1ccc(C(F)(F)F)cc1CN1C(=O)O[C@H](c2cc(C(F)(F)F)cc(C(F)(F)F)c2)[C@@H]1C [Anacetrapib, anacetrapib]
decrease LDL-C (HDL-C, LDL-C; 150 mg once daily, patients): 40%
increase HDL C (HDL-C, LDL-C; 150 mg once daily, patients): 139%
decrease LDL-C (HDL-C, LDL-C; [5]): 36%
increase HDL C (HDL-C, LDL-C; [5]): 97%
mineralocorticoid activity [3]: without mineralocorticoid activity

CCOC(=O)N1c2ccc(C(F)(F)F)cc2C(N(Cc2cc(C(F)(F)F)cc(C(F)(F)F)c2)c2ncc(OCC(=O)NCC(=O)O)cn2)CC1CC (stereo not drawn) [compound 3]
IC50 (CETP [1]): 0.45 µM
ex vivo (% inhibition) 3 mg/kg (CMC) (CETP [2]): 5.4%

CCC(CC)CC1(C(=O)Nc2ccccc2SC(=O)C(C)C)CCCCC1 [Dalcetrapib, dalcetrapib]
effects on LDL-C concentrations (HDL-C, LDL-C; phase 2b clinical trials): minimal effects
increase HDL-C (HDL-C, LDL-C; phase 2b clinical trials): 30-40%
off-target effects (in words) [3]: did not appear to exhibit the off-target effects of torcetrapib

CCOC(=O)N1c2ccc(C(F)(F)F)cc2C(N(Cc2cc(C(F)(F)F)cc(C(F)(F)F)c2)c2ncc(OCC(=O)N(C)CC(=O)O)cn2)CC1CC (stereo not drawn) [compound 4]
IC50 (CETP [1]): 0.79 µM
ex vivo (% inhibition) 3 mg/kg (CMC) (CETP [2]): 8.6%
